Some test systems named below: UACC-62 melanoma; A549 NSCLC; HOP-62 NSCLC; NCI-H23 lung; SN12C renal; COLO 205 colon; HCC-2998 colon; MOLT-4 leukemia; MDA-N; UACC-257 melanoma; SNB-75 CNS; OVCAR-5 ovarian; CCRF-CEM leukemia; 786-0 renal; PC-3 prostate.
What all share (experiment): growth of human tumour cells (NCI), 48 h

Values joined by “and” are separate entries in the source; they are usually repeats but may differ in a detail not shown here. Equal values may be shown once.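 Test compounds were applied to cells in 96-well plates for 48 hours at 5 doses. At the GI50, growth is halved. Definition used: TGI = concentration required for complete inhibition of growth.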

`O=C1/C(=C/c2cccc([N+](=O)[O-])c2)CCCc2ccccc21`: the TGI with UACC-62 melanoma was determined as 21.6 µM; in the experiment with A549 NSCLC, 48 µM; in the experiment on HOP-62 NSCLC it was 29.3 µM; in the experiment with NCI-H23 lung it was 31.4 µM; in the experiment on SN12C renal, 33.1 µM; in the experiment on COLO 205 colon it was 32.8 µM. Moreover, the TGI in the experiment on HCC-2998 colon worked out at 22 µM; in the experiment with MOLT-4 leukemia, 34 µM; in the experiment on MDA-N, 22.7 µM; with UACC-257 melanoma, 30.2 µM; in the experiment with SNB-75 CNS, 29.9 µM; with OVCAR-5 ovarian, 27.6 µM. Moreover, the TGI in the experiment with CCRF-CEM leukemia was 10.5 µM; in the experiment on 786-0 renal, 26.6 µM; in the experiment on PC-3 prostate, 23 µM.

Consider `CCCCCCCCCC(=O)OCC1(CO)C/C(=C/CC(C(C)C)C(C)C)C(=O)O1` (centres undefined), for which the TGI in the experiment with UACC-62 melanoma was over 100 µM; in the experiment with A549 NSCLC it was over 100 µM; with HOP-62 NSCLC, over 100 µM; in the experiment with NCI-H23 lung, over 100 µM; in the experiment on SN12C renal, over 100 µM; in the experiment on COLO 205 colon, 28.7 µM. For the same molecule, the TGI is over 100 µM in the experiment on HCC-2998 colon; 54 µM in the experiment with MOLT-4 leukemia; over 100 µM with MDA-N; over 100 µM with UACC-257 melanoma; over 100 µM in the experiment with SNB-75 CNS; over 100 µM with OVCAR-5 ovarian. Moreover, the results for the TGI in the experiment on CCRF-CEM leukemia, with 786-0 renal and in the experiment on PC-3 prostate were 73.1 µM, over 100 µM and over 100 µM, respectively.

As for `Cc1ccc2c(c1)C(C1Cc3c(C)cccc3C1=O)OC2=O` (centres undefined), the TGI in the experiment on UACC-62 melanoma, in the experiment with A549 NSCLC, with HOP-62 NSCLC, in the experiment with NCI-H23 lung, in the experiment on SN12C renal and in the experiment with COLO 205 colon was over 100 µM each time. The TGI in the experiment with HCC-2998 colon, with MOLT-4 leukemia, in the experiment on MDA-N, with UACC-257 melanoma, in the experiment with SNB-75 CNS and in the experiment on OVCAR-5 ovarian was over 100 µM in each case. In addition, the TGI with CCRF-CEM leukemia, in the experiment with 786-0 renal and in the experiment on PC-3 prostate was over 100 µM throughout.

Take `CN(C(=O)C1=CCCCCC1)c1ccccc1I`: the TGI is over 100 µM in the experiment on UACC-62 melanoma; over 100 µM in the experiment on A549 NSCLC; over 100 µM in the experiment with HOP-62 NSCLC; over 100 µM with NCI-H23 lung; over 100 µM with SN12C renal; 37.6 µM with COLO 205 colon. The TGI was over 100 µM in the experiment with HCC-2998 colon; over 100 µM in the experiment with MOLT-4 leukemia; over 100 µM in the experiment on MDA-N; over 100 µM in the experiment with UACC-257 melanoma; 79.7 µM with SNB-75 CNS; over 100 µM in the experiment on OVCAR-5 ovarian. The TGI in the experiment on CCRF-CEM leukemia, in the experiment on 786-0 renal and in the experiment on PC-3 prostate was over 100 µM each time.

Regarding `O=C(/C=C/c1ccc(O)c(O)c1)NC(CO)C(=O)O` (centres undefined), the TGI with UACC-62 melanoma, with A549 NSCLC, with HOP-62 NSCLC, in the experiment on NCI-H23 lung, in the experiment on SN12C renal and in the experiment on COLO 205 colon was over 100 µM in each case. In addition, the TGI in the experiment on HCC-2998 colon, in the experiment with MOLT-4 leukemia, in the experiment on MDA-N, in the experiment with UACC-257 melanoma, in the experiment on SNB-75 CNS and in the experiment with OVCAR-5 ovarian was over 100 µM each time. The TGI with CCRF-CEM leukemia, in the experiment with 786-0 renal and in the experiment with PC-3 prostate was over 100 µM throughout.

Turning to `COC(=O)/C=C/c1cc(OC)c2c(c1)C(C(=O)OC)C(c1ccc(OC)c(OC)c1)O2` (centres undefined), the TGI is over 100 µM in the experiment with UACC-62 melanoma; over 100 µM in the experiment with A549 NSCLC; over 100 µM with HOP-62 NSCLC; over 100 µM with NCI-H23 lung; over 100 µM with SN12C renal; > 100 µM and 17.6 µM in the experiment with COLO 205 colon. The TGI in the experiment with HCC-2998 colon is over 100 µM; in the experiment on MOLT-4 leukemia it was over 100 µM; in the experiment with MDA-N, over 100 µM; in the experiment on UACC-257 melanoma, over 100 µM; with SNB-75 CNS, 5.61 µM; in the experiment with OVCAR-5 ovarian, over 100 µM. In addition, the TGI in the experiment with CCRF-CEM leukemia, with 786-0 renal and in the experiment with PC-3 prostate was over 100 µM throughout. Moreover, the GI50 in the experiment with NCI-H23 lung was over 100 µM; in the experiment with HCC-2998 colon it was > 100 µM and 38.6 µM; in the experiment on MDA-N it was 30.6 µM; with OVCAR-5 ovarian, over 100 µM.

For the molecule `CC(=O)OCC(OC(C)=O)C(OC(C)=O)C(/C=N/N(C(C)=O)S(=O)(=O)c1ccc(/C=C2\NC(=O)NC2=O)cc1)OC(C)=O` (centres undefined), the TGI in the experiment with UACC-62 melanoma, in the experiment on A549 NSCLC, in the experiment on HOP-62 NSCLC, with NCI-H23 lung, with SN12C renal and with COLO 205 colon was over 100 µM throughout. The TGI with HCC-2998 colon, in the experiment with MOLT-4 leukemia, with MDA-N, with UACC-257 melanoma, in the experiment on SNB-75 CNS and in the experiment with OVCAR-5 ovarian was over 100 µM each time. In addition, the TGI in the experiment on CCRF-CEM leukemia, in the experiment on 786-0 renal and with PC-3 prostate was over 100 µM throughout.
